Measured values taken from publication PMC2171038 (Traffic (Copenhagen, Denmark), 2007).

Target: T1, protoporphyrinogen oxidase (Saccharomyces cerevisiae, UniProt P40012)
T1 sequence (P40012 1-539): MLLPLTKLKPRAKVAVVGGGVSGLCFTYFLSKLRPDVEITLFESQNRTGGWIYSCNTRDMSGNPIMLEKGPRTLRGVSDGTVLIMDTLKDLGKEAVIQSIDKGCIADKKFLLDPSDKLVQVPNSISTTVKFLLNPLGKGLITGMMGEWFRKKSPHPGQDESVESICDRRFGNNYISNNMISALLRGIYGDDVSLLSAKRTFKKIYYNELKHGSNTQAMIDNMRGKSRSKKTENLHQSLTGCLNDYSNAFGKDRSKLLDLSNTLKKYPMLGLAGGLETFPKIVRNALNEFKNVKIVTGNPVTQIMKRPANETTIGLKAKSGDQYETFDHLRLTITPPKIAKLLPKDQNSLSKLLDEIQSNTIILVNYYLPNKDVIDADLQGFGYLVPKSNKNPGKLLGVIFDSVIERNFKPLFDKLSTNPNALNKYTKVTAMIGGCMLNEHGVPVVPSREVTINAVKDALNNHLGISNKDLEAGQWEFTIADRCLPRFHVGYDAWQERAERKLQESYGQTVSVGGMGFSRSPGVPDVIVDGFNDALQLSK
Assay: fluorimetric protoporphyrinogen oxidase activity assay
Type: biochemical

IC50: ~100 nM
Compound: CC(=O)N(O)CCCCCNC(=O)CCC(=O)N(O)CCCCCNC(=O)CCC(=O)N(O)CCCCCNC(=O)c1cc(Oc2ccc(C(F)(F)F)cc2Cl)ccc1[N+](=O)[O-] [compound 1, DFOB-AF]
